Test in all cases: DTP human tumour cell line panel, 48 h
The subject of assay [1] is HL-60.
The subject of assay [2] is SK-MEL-28.
The subject of assay [3] is HT-29.
In assay [4] the test system is 786-0.
Assay [5] relates to SR.
The subject of assay [6] is MDA-MB-435.
The test system of assay [7] is EKVX.
Assay [8] concerns NCI/ADR-RES.
Assay [9] deals with MDA-N.
The subject of assay [10] is CCRF-CEM.
Assay [11] relates to U-251.
The subject of assay [12] is RXF 393.
For assay [13], the system named is NCI-H522.
For assay [14], the system named is OVCAR-8.
For assay [15], the system named is HOP-62.
Assay [16] relates to UO-31.
Assay [17] relates to UACC-257.
Assay [18] deals with KM12.
In assay [19] the test system is OVCAR-3.
The test system of assay [20] is Malme-3M.

The record followed here is ChEMBL document CHEMBL1201862, “PubChem BioAssay data set” (2004).

SMILES strings stand for the structures.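 The compound was tested at five concentrations on cells cultured in 96-well plates, with a 48-hour exposure period. GI50 marks 50% less growth.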 Active and inactive are the calls of the source. Cut-off read from the data, not from the text of the source: active = GI50 up to about 1.1 µM and inactive = higher.

In general, GI50 refers to the concentration giving 50% growth inhibition.

As to `O=C1OCC=C1COC1OC(CO)C(O)C(O)C1O` (stereo not given), the GI50 in assay [1] was 73.6 µM (inactive); in [2], > 100 µM (inactive); in assay [3], > 100 µM (inactive); in assay [4], > 100 µM (inactive); in [5] it was 36.2 µM (inactive); in assay [6], > 100 µM (inactive). Moreover, the GI50 in assay [7] is > 100 µM (inactive); in assay [8], > 100 µM (inactive); in assay [9] it was > 100 µM (inactive); in assay [10], 30.5 µM (inactive); in assay [11], > 100 µM (inactive); in assay [12] it was > 100 µM (inactive). The GI50 in assay [13] is 17.2 µM (inactive); in assay [14], > 100 µM (inactive); in assay [15], > 100 µM (inactive); in assay [16], > 100 µM (inactive); in [17], > 100 µM (inactive); in assay [18], > 100 µM (inactive). The GI50 in assay [19] and in assay [20] was > 100 µM (inactive) in each case.
With `COc1ccc(NC(=S)c2ccc([N+](=O)[O-])o2)cc1`, the GI50 in [1] was 1.99 µM (inactive); in [2] it was 3.22 µM (inactive); in [3], 1.26 µM (inactive); in assay [4], 1.97 µM (inactive); in assay [5], 0.927 µM (active); in assay [6], 2.06 µM (inactive). Further, the GI50 is 2.92 µM (inactive) in assay [7]; 0.678 µM (active) in [8]; 2.29 µM (inactive) in assay [9]; 2.14 µM (inactive) in assay [10]; 0.885 µM (active) in [11]; 1.99 µM (inactive) in assay [12]. Also, the GI50 in assay [13] was 1.29 µM (inactive); in assay [14], 1.28 µM (inactive); in assay [15] it was 2.82 µM (inactive); in [16], 2.03 µM (inactive); in [17], 2.7 µM (inactive); in assay [18], 1.6 µM (inactive). Moreover, the GI50 was 1.19 µM (inactive) in assay [19] and 2.37 µM (inactive) in [20].
For `COC1CC(C)(NC(=O)C(F)(F)F)C2OC(c3ccccc3)OCC2O1` (stereo not given), the GI50 was > 100 µM (inactive) in assay [1]; > 100 µM (inactive) in [2]; 47 µM (inactive) in assay [3]; > 100 µM (inactive) in [4]; > 100 µM (inactive) in [5]; > 100 µM (inactive) in assay [6]. For the same compound, the GI50 in assay [7], in [8], in [9], in assay [10], in assay [11] and in assay [12] was > 100 µM (inactive) each time. For the same compound, the GI50 in assay [13], in assay [14], in assay [15], in assay [16], in assay [17] and in assay [18] was > 100 µM (inactive) in each case. In addition, the GI50 in [19] and in assay [20] was > 100 µM (inactive) in each case.
